Data on one compound can be found in patent US11008325B2, “Inhibitors of cancer invasion, attachment, and/or metastasis” (VIRGINIA COMMONWEALTH UNIVERSITY, priority 2016, dated 2021).

The test system of data set [1] is Mcl-1, Bcl-xL, Bid, MT1-MMP-PEX domain, IL20R, RKIP, Jnk2, Ubc13, SIAH1, Ship2-SAM. As to the kind of experiment: binding to panel of protein-protein interaction proteins. To be noted: 50 μM, 1:1 ligand/protein ratio. The method, then:
In addition, the molecules are tested against a series of proteins available in the laboratory involved in protein-protein interactions including Mcl-1, Bcl-xL, Bid, MT1-MMP-PEX domain, IL20R, RKIP, Jnk2 (JIP-binding site Met labeled), Ubc13, SIAH1, and Ship2-SAM. […] In designing compounds using elements of the libraries, particular emphasis will be put on drug-like properties of the compounds. […] Additionally, the MTD and PK properties on selected compounds prior to their eventual evaluations in vivo in will be addressed. Preliminarily, PK studies with 113B7 indicate that the compound is stable and long-lived with nearly 100% bioavailability when administered IP (FIG. 53).

Data set [2] concerns Im-PHFA cells overexpressing MDA-9/Syntenin. As to the kind of experiment: trans-well Matrigel invasion assay. Format: cell-based, human. To be noted: after MDA-9/Syntenin overexpression. The method, then: (§1) FIGS. 7A-7B. FIG. 7A. Im-PHFA, primary immortal human fetal astrocyte cells were infected with an MDA-9/Syntenin expression plasmid carrying adenovirus. 48 hrs post-infection both the control and MDA-9/Syntenin overexpressing cells were treated with DMSO or PDZ1i followed by seeding in a trans-well Matrigel invasion assay and stained after 24 hrs. FIG. 7B. T98G and U87 were treated with DMSO or PDZ1i and seeding in a trans-well Matrigel invasion assay and stained after 24 hrs. Invasion was quantified from 4 random fields. Data represents fold changes and average±S.D.
(§2) Invasion was measured using 24-well BioCoat cell culture inserts (BD Biosciences, Bedford, Mass.) with an 8-μm-porosity polyethylene terephthalate membrane coated with Matrigel Basement Membrane Matrix (100 μg/cm^2). Briefly, the Matrigel was allowed to rehydrate for 2 h at room temperature by adding warm, serum-free DMEM. The wells of the lower chamber were filled with medium containing 10% fetal bovine serum. […] Cells remaining on the upper surface of the filters were removed by wiping with a cotton swab, and invasion was determined by counting the cells that migrated to the lower side of the filter using at least 5 fields per insert at 100× magnification. […] Data from triplicate experiments were expressed as mean±95% confidence interval (CI).

Another data set relates to T98G cells. As to the kind of experiment: trans-well Matrigel invasion assay. In kind it is cell-based, human. The settings on record: PDZ1i versus DMSO. The method, then: as §1, §2
In data set [3] the test system is RWPE-1 cells overexpressing mda-9. As to the kind of experiment: modified Boyden Chamber invasion assay. Format: cell-based, human. The method, then: FIGS. 17A-17H. Effect of PDZ1i on invasion, MDA-9/IGF-R1 interaction and IGF-R1, STAT3 and SRC phosphorylation. FIG. 17A) Different cancer cells (25,000 cells/well) from various anatomic origins were pre-treated with either DMSO (vehicle) or PDZ1i (dose as indicated) and invasion ability was assayed using modified Boyden Chamber according to the manufacturer's instructions. Photomicrographs were taken at 10× magnification and quantification of the results of three independent experiments is provided in the graphs. The data presents mean±S.D. B) The designated cells were treated with DMSO or PDZ1i and invasion properties were determined using a modified Boyden Chamber assay (BD bioscience). RWPE-1 mda-9: mda-9 transiently overexpressing cell line. […] FIG. 17E) Cells were growth starved for 24 h and treated with either DMSO or PDZ1i (dose indicated in μM) for 6 h. Cells were treated with human recombinant IGFBP-2 (hIGFBP-2, 10 ng/ml) for 2 h, lysates were prepared and western blot analysis was conducted with specific antibodies. […] Cells were treated with human recombinant IL-6 (hIGFBP-2, 1 ng/ml) for 2 h, cell lysates were prepared and analyzed by western blotting. […]
Boyden chamber assays were done to investigate the invasive properties of cancer cells^26, 27. […] After 18 h, invasive cells were photographed and analyzed.

A further data set deals with cancer cells. As to the kind of experiment: toxicity to cultured cells. In kind it is cell-based, human.
A further data set concerns EGFR. As to the kind of experiment: EGFR activation in PC cells. In kind it is cell-based. The method, then:
Considering the key role of MDA-9/IGF-1R interactions in STAT-3 activation, which has a decisive impact on PC progression, small molecule inhibitors that bind to MDA-9 were tested for their ability to specifically interrupt MDA-9/IGF-1R interactions thereby affecting STAT3 activation and PC invasion. […] In PC cells, PDZ1i-mediated downregulation of c-Src activation is partially IGF-1R dependent. Another tyrosine kinase, EGFR, which is also an interacting partner of MDA-9, has been reported to activate c-Src in PC.

On to `Cc1cc(NC(=O)c2nc3[nH]c4c(c(=O)n3n2)CCC4)c(C)cc1NC(=O)CCc1nnc(-c2ccccc2)o1` [113B7, N-(2,5-dimethyl-4-(3-(5-phenyl-1,3,4-oxadiazol-2-yl)propanamido)phenyl)-8-oxo-5,6,7,8-tetrahydro-4H-cyclopenta[d][1,2,4]triazolo[1,5-a]pyrimidine-2-carboxamide], for which the “binding to protein-protein interaction panel” value in data set [1] was “no appreciable binding”. Further, in data set [2], the MDA-9/Syntenin-induced invasion result was “effective in inhibiting MDA-9/Syntenin-induced invasion”. For the same compound, in the data set with T98G cells, the invasion entry is “effectively inhibited invasion”. Also, the mda-9-mediated invasion entry in data set [3] was “significantly attenuated”. Further, the “toxicity to primary normal cells and cancer cells” value in the data set on cancer cells is “non-toxic”. Moreover, the toxicity result with cancer cells (tested at 50 μM) is “did not show any toxicity”. The cytotoxicity result in the data set on cancer cells (tested up to 20 μM) is “did not show any significant cytotoxicity”. The EGFR activation result in the data set with EGFR is “did not have any effect”.
